According to patent publication US20210290784A1, “POSITRON EMISSION TOMOGRAPHY (PET) RADIOTRACERS FOR IMAGING MACROPHAGE COLONY-STIMULATING FACTOR 1 RECEPTOR (CSF1R) IN NEUROINFLAMMATION” (The Johns Hopkins University, priority 2018, published 2021):
Blank lines part the entries; values can stand above or below the molecule they belong to.

Legend:
CSF1R [1] = biological target: CSF1R (Homo sapiens, UniProt P07333); assay: CSF1R competition binding assay, KinomeScan, DiscoverX; set-up: purchased DiscoverX; conditions: commercial assay
microglia = conditions: chronic treatment of mice; cited from earlier work
CSF1R Human RTK Kinase = biological target: T1, CSF1R Human RTK Kinase (Homo sapiens, UniProt P07333); assay: CSF1R Human RTK Kinase, Enzymatic Radiometric Assay, Eurofins; assay type: biochemical; conditions: commercial assay
T1 construct: purchased Eurofins

TSPO = biological target: T2, TSPO (Rattus norvegicus, UniProt P16257); conditions: LPS-treated rats; cited from earlier work
T2 construct: host or cells: LPS-treated rats (cited study)

CSF1R [2] = biological target: T3, CSF1R (Mus musculus, UniProt P09581); conditions: i.p.-LPS mice, blocker 1 mg/kg i.p., 5 min before radiotracer
T3 sequence (P09581 20-977): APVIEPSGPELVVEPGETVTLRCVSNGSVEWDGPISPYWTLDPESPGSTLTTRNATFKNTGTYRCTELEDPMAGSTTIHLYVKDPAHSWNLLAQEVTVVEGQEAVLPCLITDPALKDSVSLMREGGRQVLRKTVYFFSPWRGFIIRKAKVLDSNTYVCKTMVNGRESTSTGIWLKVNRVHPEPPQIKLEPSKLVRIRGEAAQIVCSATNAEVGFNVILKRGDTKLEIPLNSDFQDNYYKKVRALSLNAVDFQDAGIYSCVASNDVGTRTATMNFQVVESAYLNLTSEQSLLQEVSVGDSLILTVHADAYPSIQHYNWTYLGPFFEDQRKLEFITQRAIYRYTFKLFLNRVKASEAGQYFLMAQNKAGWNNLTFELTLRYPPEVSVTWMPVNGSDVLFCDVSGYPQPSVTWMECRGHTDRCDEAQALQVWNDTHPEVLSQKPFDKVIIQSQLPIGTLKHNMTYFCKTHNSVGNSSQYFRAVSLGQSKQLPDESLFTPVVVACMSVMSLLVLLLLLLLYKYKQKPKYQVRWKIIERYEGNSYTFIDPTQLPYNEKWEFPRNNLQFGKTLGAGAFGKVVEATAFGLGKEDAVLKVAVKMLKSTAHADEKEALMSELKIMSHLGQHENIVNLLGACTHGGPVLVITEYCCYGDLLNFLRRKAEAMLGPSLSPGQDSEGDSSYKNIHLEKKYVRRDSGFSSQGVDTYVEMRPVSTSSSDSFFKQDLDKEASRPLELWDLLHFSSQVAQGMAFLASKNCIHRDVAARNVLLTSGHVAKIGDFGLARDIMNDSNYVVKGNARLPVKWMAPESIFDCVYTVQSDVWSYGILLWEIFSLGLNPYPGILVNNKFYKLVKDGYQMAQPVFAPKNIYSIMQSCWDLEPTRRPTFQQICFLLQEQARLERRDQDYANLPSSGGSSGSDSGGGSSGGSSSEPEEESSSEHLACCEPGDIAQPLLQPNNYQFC

CSF1R (Homo sapiens, UniProt P07333), sequence (P07333 20-972, species assumed): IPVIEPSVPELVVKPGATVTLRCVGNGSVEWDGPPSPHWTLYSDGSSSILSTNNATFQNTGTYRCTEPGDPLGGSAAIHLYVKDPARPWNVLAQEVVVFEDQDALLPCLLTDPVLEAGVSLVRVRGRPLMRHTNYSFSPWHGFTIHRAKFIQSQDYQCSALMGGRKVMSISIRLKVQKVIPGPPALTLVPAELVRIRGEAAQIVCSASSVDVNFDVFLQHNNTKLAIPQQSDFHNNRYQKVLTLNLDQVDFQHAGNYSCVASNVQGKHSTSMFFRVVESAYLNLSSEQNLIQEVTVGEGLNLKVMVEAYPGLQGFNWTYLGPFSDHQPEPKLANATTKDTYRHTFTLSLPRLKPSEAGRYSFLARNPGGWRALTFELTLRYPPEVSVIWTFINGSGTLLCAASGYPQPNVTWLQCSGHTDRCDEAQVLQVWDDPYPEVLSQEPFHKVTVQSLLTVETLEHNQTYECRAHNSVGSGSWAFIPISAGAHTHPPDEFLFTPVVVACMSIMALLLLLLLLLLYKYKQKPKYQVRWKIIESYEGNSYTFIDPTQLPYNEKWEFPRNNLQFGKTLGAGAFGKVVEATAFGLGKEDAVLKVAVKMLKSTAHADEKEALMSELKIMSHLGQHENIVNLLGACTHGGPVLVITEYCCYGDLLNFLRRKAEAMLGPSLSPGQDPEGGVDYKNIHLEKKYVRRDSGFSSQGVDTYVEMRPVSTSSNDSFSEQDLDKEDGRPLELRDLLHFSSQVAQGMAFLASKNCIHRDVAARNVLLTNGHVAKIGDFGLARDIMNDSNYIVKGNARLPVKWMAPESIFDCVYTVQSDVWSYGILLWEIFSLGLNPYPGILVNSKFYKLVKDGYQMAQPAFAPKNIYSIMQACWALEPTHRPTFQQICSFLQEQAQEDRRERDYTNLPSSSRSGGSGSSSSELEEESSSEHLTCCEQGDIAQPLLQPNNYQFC
T1 sequence (P07333 20-972): as the sequence (P07333 20-972, species assumed) above

SMILES: FC(F)(F)c1ccc(CNc2ccc(Cc3c[nH]c4ncc(Cl)cc34)cn2)cn1 [PLX3397, pexidartinib]
depletion of microglia (microglia): 90%

SMILES: CCC(C)N([11CH3])C(=O)c1cc2ccccc2c(-c2ccccc2Cl)n1 (stereo not drawn) [[^11C]PK11195]
BP value (TSPO): 0.47

SMILES: CC1CCN(c2cc(N3CCN(CCF)CC3)ccc2NC(=O)c2cc(C#N)c[nH]2)CC1 [1l JHU11764, 4-Cyano-N-(4-(4-(2-fluoroethyl)piperazin-1-yl)-2-(4-methylpiperidin-1-yl)phenyl)-1H-pyrrole-2-carboxamide]
IC50 (CSF1R Human RTK Kinase): 3.14 nM

SMILES: CN1CCN(c2ccc(NC(=O)c3ccc(C#N)o3)c(N3CCCCC3)c2)CC1 [1a JHU11744, 5-Cyano-N-(4-(4-methylpiperazin-1-yl)-2-(piperidin-1-yl)phenyl)furan-2-carboxamide]
blocking of [11C]CPPC SUVR uptake by CSF1R inhibitor (CSF1R [2]): significantly decreased the uptake to the control level

Other lines, results leading:

Kd (CSF1R [1]): > 1000 nM
SMILES: CN1CCN(c2ccc(NC(=O)c3cc(C#N)co3)c(N3CCCCC3)c2)CC1 [1g JHU11765, 4-Cyano-N-(4-(4-methylpiperazin-1-yl)-2-(piperidin-1-yl)phenyl)furan-2-carboxamide]

Kd (CSF1R [1]): > 1000 nM
SMILES: CN1CCN(c2ccc(NC(=O)c3coc(C#N)c3)c(N3CCCCC3)c2)CC1 [1h JHU11766, 5-Cyano-N-(4-(4-methylpiperazin-1-yl)-2-(piperidin-1-yl)phenyl)furan-3-carboxamide]

IC50 (CSF1R Human RTK Kinase): 12.9 nM
Kd (CSF1R [1]): 32 nM
SMILES: N#Cc1ccc(C(=O)Nc2ccc(N3CCN(CCF)CC3)cc2N2CCCCC2)o1 [1k JHU11763, 5-Cyano-N-(4-(4-(2-fluoroethyl)piperazin-1-yl)-2-(piperidin-1-yl)phenyl)furan-2-carboxamide]

Kd (CSF1R [1]): 30 nM
SMILES: CN1CCN(c2ccc(NC(=O)c3cccc(F)n3)c(N3CCCCC3)c2)CC1 [1i JHU11767, 6-Fluoro-N-(4-(4-methylpiperazin-1-yl)-2-(piperidin-1-yl)phenyl)picolinamide]
